The test system of assay [1] is HCT116, HaCat, and MEF cells. The assay can be described thus: GFP-LC3 autophagy with KSHV vFLIP in multiple cell types. Format: cell-based. The following applies: 2 μM rapamycin 3 hr. The protocol:
During autophagy, an LC3 precursor (LC3-I) undergoes cleavage and lipidation to yield its processed form (LC3-II) (Mizushima et al. (2008) Nature 451:1069-1075). Immunoblotting was performed with an antibody against LC3 to further measure autophagic activity. NIH3T3-Vector, NIH3T3-KSHV-vFLIP, and NIH3T3-MCV-159L cells were treated with Hank's solution for 4 hr. Polypeptides were resolved by SDS-polyacrylamide gel electrophoresis (PAGE) and transferred to a PVDF membrane (Bio-Rad). […] The proteins were visualized by a chemiluminescence reagent (Pierce) and detected by a Fuji Phosphor Imager. A large portion of LC3-I was processed to LC3-II in NIH3T3-vector cells under starvation conditions, while little or no processed LC3-II was detected in NIH3T3-KSHV-vFLIP, NIH3T3-MCV-159L, NIH3T3-HVS-vFLIP, and NIH3T3-cFLIPs cells. Finally, the ability of FLIP to block autophagy in multiple cell types was evaluated. At 12-16 hr post-transfection with GFP-LC3, HCT116, HaCat, and MEF cells containing vector or KSHV vFLIP were treated with 2 μM rapamycin for 3 hr. Subsequently, GFP-LC3 was detected using an inverted fluorescence microscope and the autophagy levels quantified as means (±SD) of the results from three independent experiments.

Assay [2] concerns human Atg3 deletion mutants. As to the kind of experiment: GST pulldown with Atg3 deletion mutants. In kind it is binding. The conditions noted are these: GST-Atg3, N-terminal and C-terminal regions. The text has this: The overall structure of yeast Atg3 has a unique hammer-like shape with the N-terminal and C-terminal regions discretely responsible for Atg7 and Atg8 (equivalent to mammalian LC3) binding, respectively. (Yamada et al. (2007) J. Biol. Chem. 282:8036-8043). Based on the structure of yeast Atg3, human Atg3 deletion mutants fused with a GST mammalian expression vector were constructed: GST-Atg31-93, GST-Atg3193-268, GST-Atg3268-315, and GST-Atg3193-315-GST-tagged hATG3 and hATG3 mutant genes were cloned into a pcDNA5/FRT/TO derivative encoding an N-terminal GST epitope tag between the BamHI and NotI sites. GST pulldown with Flag-KSHV vFLIP, Flag-cFLIPs, Flag-MCV 159L, or Flag-HVS vFLIP along with GST-Atg3, GST-Atg3 N-terminal region (Nt), or GST-Atg3 C-terminal region (Ct) was performed as described above and was followed by immunoblotting with aFlag or aGST.

A further assay has as its target T1, Atg3 (Homo sapiens, UniProt Q9NT62).
T1 construct: GFP (alternative construct GFP-Atg3, not on the same molecule as GST); expressed in transfected cells; host or cells: HEK293T
As to the kind of experiment: Co-immunoprecipitation of FLIP with Atg3 in HEK293T cells. In kind it is binding. The following applies: endogenously and exogenously expressed Atg3. As for the experimental part:
The ability of FLIP to bind to Atg3 was evaluated by co-immunoprecipitation assay. HEK293T cells were transfected with Flag-vFLIP and/or GFP-Atg3 or Flag-vFLIP and/or GST-Atg3, and at 48 hr post-transfection, cells were harvested and lysed in an NP40 buffer supplemented with complete protease inhibitor cocktail (Roche). After pre-clearing with protein A/G agarose beads for 1 hr at 4° C., whole-cell lysates were used for immunoprecipitation with αFlag, αGFP, or GST. Generally, 1-4 μg of the antibody was added to 1 ml of the cell lysate and incubated at 4° C. for 8 to 12 hr. The immunoprecipitates were then washed extensively with a lysis buffer and eluted by boiling them with an SDS loading buffer for 5 min. Following immunoprecipitation, samples were treated to immunoblot using αAtg3 (1:500) (Novus).

T1 sequence (Q9NT62 whole entry): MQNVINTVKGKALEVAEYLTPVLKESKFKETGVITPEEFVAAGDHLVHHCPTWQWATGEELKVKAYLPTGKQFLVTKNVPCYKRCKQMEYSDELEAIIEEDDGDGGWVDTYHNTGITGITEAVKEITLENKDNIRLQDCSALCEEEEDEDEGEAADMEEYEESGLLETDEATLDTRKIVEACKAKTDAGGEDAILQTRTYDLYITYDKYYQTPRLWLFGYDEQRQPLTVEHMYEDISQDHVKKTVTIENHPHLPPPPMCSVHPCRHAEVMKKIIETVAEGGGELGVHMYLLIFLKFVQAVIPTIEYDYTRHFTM

“KSHV vFLIP: viral FLICE-like inhibitor protein of Kaposi's sarcoma-associated herpesvirus, expressed in cells”: the “block of autophagy in multiple cell types” value in assay [1] is reported as “efficiently blocked autophagy in a number of cell types”. In assay [2], the “Atg3 region bound (GST pulldown)” value is “independently bound either the aa193-268 or aa268-315 region of the C-terminal of Atg3”. Further, the “interaction with Atg3 (co-immunoprecipitation)” value with Atg3 is “strongly interacted with endogenously and exogenously expressed Atg3, even in the presence of a 1M NaCl salt concentration”.
